Measured values from US11279733B2, “Peptide antibiotics” (priority 2017, dated 2022).
Converted amounts (≈) assume the structure as drawn. Positions of bridges follow the written chain, without caps; N, C: chain ends. Non-standard residues stand in square brackets, D forms with d. Residues, ends and D or L forms follow the SMILES beside them. *: point of attachment. dPhe(4-CN) = N#Cc1ccc(C[C@@H](N)C(=O)O)cc1; Decanoyl(3R-OH) = CCCCCCC[C@@H](O)CC(=O)*; dPhe(4-F) = N[C@H](Cc1ccc(F)cc1)C(=O)O; d2Nal = N[C@H](Cc1ccc2ccccc2c1)C(=O)O; dIgl = N[C@@H](C(=O)O)C1Cc2ccccc2C1; d(hPhe) = N[C@H](CCc1ccccc1)C(=O)O; dDab = NCC[C@@H](N)C(=O)O; Dab = NCC[C@H](N)C(=O)O

Assays:
A. baumannii ATCC 19606 = conditions: ATCC 19606
Outline: (§1)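 Mid-log cultures grown in Mueller Hinton broth at 37° C were tested by 2-fold broth microdilution at 5×10^5 CFU/mL final. Compounds were dissolved in water and tested over a final range of 32 to 0.015 μg/mL.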

A. baumannii GN_093 PmxR = conditions: GN 093 PmxR
Outline: as §1

E. coli ATCC 25922 = conditions: ATCC 25922
Outline: as §1

K. pneumoniae ATCC 13883 = conditions: ATCC 13883
Outline: as §1

[1] = test system: K. pneumoniae ATCC 700603, MDR; conditions: ATCC 700603
Outline: as §1

[2] = test system: K. pneumoniae ATCC BAA-2146, NDM-1 pos; conditions: ATCC BAA-2146
Outline: as §1

[3] = test system: K. pneumoniae GN_102 PmxR; conditions: GN 102 PmxR
Outline: as §1

[4] = test system: K. pneumoniae GN_106, PmxR; conditions: GN 106, PmxR
Outline: as §1

P. aeruginosa ATCC 27853 = conditions: ATCC 27853
Outline: as §1

[5] = test system: P. aeruginosa GN_043, PmxR; conditions: polymyxin-resistant
Outline: as §1

[6] = test system: P. aeruginosa GN_105, PmxR; conditions: GN 105, PmxR
Outline: as §1

[7] = test system: S. aureus ATCC 25923, MSSA; conditions: ATCC 25923
Outline: as §1

in vitro = conditions: human
Outline: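 Compound exposure lasted 24 h, following 24 h attachment of 4000 cells/well at 37° C under 5% CO2.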

Row | Compound | MIC A. baumannii ATCC 19606 (A. baumannii ATCC 19606) [µg/mL] | MIC A. baumannii GN_093 PmxR (A. baumannii GN_093 PmxR) [µg/mL] | MIC E. coli ATCC 25922 (E. coli ATCC 25922) [µg/mL] | MIC K. pneumoniae ATCC 13883 (K. pneumoniae ATCC 13883) [µg/mL] | MIC K. pneumoniae ATCC 700603, MDR [1] [µg/mL] | MIC K. pneumoniae ATCC BAA-2146, NDM-1 pos [2] [µg/mL] | MIC K. pneumoniae GN_102 PmxR [3] [µg/mL] | MIC K. pneumoniae GN_106, PmxR [4] [µg/mL] | MIC P. aeruginosa ATCC 27853 (P. aeruginosa ATCC 27853) [µg/mL] | MIC P. aeruginosa GN_043, PmxR [5] [µg/mL] | MIC P. aeruginosa GN_105, PmxR [6] [µg/mL] | MIC S. aureus ATCC 25923, MSSA [7] [µg/mL] | CC50 at 24 h (in vitro) [µM]
1 | CCCCCCC[C@@H](O)CC(=O)N[C@H](CCN)C(=O)N[C@H]1CCNC(=O)[C@H](Cc2c[nH]c3ccccc23)NC(=O)[C@H](CCN)NC(=O)[C@H](CCN)NC(=O)[C@H](CC(C)C)NC(=O)[C@@H](Cc2ccc(C#N)cc2)NC(=O)[C@H](CCN)NC1=O [compound 8105, 3(R)OH-nC9CO-D-Dab-cyc[L-Dab-L-Dab-L-Dab-D-Phe(4-CN)-L-Leu-L-Dab-L-Dab-L-Trp]] ({Decanoyl(3R-OH)}-[dDab][Dab][Dab][dPhe(4-CN)]L[Dab][Dab]W; lactam 2-C) | 8 (≈ 7 µM) | 16 (≈ 14 µM) | 4 (≈ 3.5 µM) | 8 (≈ 7 µM) | 8 (≈ 7 µM) | 4 (≈ 3.5 µM) | 4 (≈ 3.5 µM) | 8 (≈ 7 µM) | 2 (≈ 1.75 µM) | 2 (≈ 1.75 µM) | 2 (≈ 1.75 µM) | 4 (≈ 3.5 µM) | 107
2 | CCCCCCC[C@@H](O)CC(=O)N[C@H](CCN)C(=O)N[C@H]1CCNC(=O)[C@H](Cc2c[nH]c3ccccc23)NC(=O)[C@H](CCN)NC(=O)[C@H](CCN)NC(=O)[C@H](CC(C)C)NC(=O)[C@@H](Cc2ccc3ccccc3c2)NC(=O)[C@H](CCN)NC1=O [compound 8113, 3(R)OH-nC9CO-D-Dab-cyc[L-Dab-L-Dab-L-Dab-D-Ala(2-Na)-L-Leu-L-Dab-L-Dab-L-Trp]] ({Decanoyl(3R-OH)}-[dDab][Dab][Dab][d2Nal]L[Dab][Dab]W; lactam 2-C) | 8 (≈ 6.85 µM) | 8 (≈ 6.85 µM) | 8 (≈ 6.85 µM) | 4 (≈ 3.43 µM) | 8 (≈ 6.85 µM) | 8 (≈ 6.85 µM) | 8 (≈ 6.85 µM) | 8 (≈ 6.85 µM) | 8 (≈ 6.85 µM) | 4 (≈ 3.43 µM) | 4 (≈ 3.43 µM) | 4 (≈ 3.43 µM) | 28
3 | CCCCCCC[C@@H](O)CC(=O)N[C@H](CCN)C(=O)N[C@H]1CCNC(=O)[C@H](Cc2c[nH]c3ccccc23)NC(=O)[C@H](CCN)NC(=O)[C@H](CCN)NC(=O)[C@H](CC(C)C)NC(=O)[C@@H](Cc2ccc(F)cc2)NC(=O)[C@H](CCN)NC1=O [compound 8119, 3(R)OH-nC9CO-D-Dab-cyc[L-Dab-L-Dab-L-Dab-D-Phe(4-F)-L-Leu-L-Dab-L-Dab-L-Trp]] ({Decanoyl(3R-OH)}-[dDab][Dab][Dab][dPhe(4-F)]L[Dab][Dab]W; lactam 2-C) | 8 (≈ 7.05 µM) | 8 (≈ 7.05 µM) | 8 (≈ 7.05 µM) | 4 (≈ 3.52 µM) | 8 (≈ 7.05 µM) | 4 (≈ 3.52 µM) | 4 (≈ 3.52 µM) | 4 (≈ 3.52 µM) | 4 (≈ 3.52 µM) | 2 (≈ 1.76 µM) | 2 (≈ 1.76 µM) | 16 (≈ 14.1 µM) | 64
4 | CCCCCCC[C@@H](O)CC(=O)N[C@H](CCN)C(=O)N[C@H]1CCNC(=O)[C@H](Cc2c[nH]c3ccccc23)NC(=O)[C@H](CCN)NC(=O)[C@H](CCN)NC(=O)[C@H](CC(C)C)NC(=O)[C@@H](Cc2c[nH]c3ccccc23)NC(=O)[C@H](CCN)NC1=O [compound 8127, 3(R)OH-nC9CO-D-Dab-cyc[L-Dab-L-Dab-L-Dab-D-Trp-L-Leu-L-Dab-L-Dab-L-Trp]] ({Decanoyl(3R-OH)}-[dDab][Dab][Dab][dW]L[Dab][Dab]W; lactam 2-C) | 16 (≈ 13.8 µM) | 32 (≈ 27.7 µM) | 2 (≈ 1.73 µM) | 16 (≈ 13.8 µM) | 4 (≈ 3.46 µM) | 4 (≈ 3.46 µM) | 16 (≈ 13.8 µM) | 4 (≈ 3.46 µM) | 2 (≈ 1.73 µM) | 2 (≈ 1.73 µM) | 2 (≈ 1.73 µM) | 4 (≈ 3.46 µM) | 63
5 | CCCCCCC[C@@H](O)CC(=O)N[C@H](CCN)C(=O)N[C@H]1CCNC(=O)[C@H](Cc2c[nH]c3ccccc23)NC(=O)[C@H](CCN)NC(=O)[C@H](CCN)NC(=O)[C@H](CC(C)C)NC(=O)[C@@H](CCc2ccccc2)NC(=O)[C@H](CCN)NC1=O [compound 8129, 3(R)OH-nC9CO-D-Dab-cyc[L-Dab-L-Dab-L-Dab-D-hPhe-L-Leu-L-Dab-L-Dab-L-Trp]] ({Decanoyl(3R-OH)}-[dDab][Dab][Dab][d(hPhe)]L[Dab][Dab]W; lactam 2-C) | 4 (≈ 3.54 µM) | 4 (≈ 3.54 µM) | 2 (≈ 1.77 µM) | 4 (≈ 3.54 µM) | 4 (≈ 3.54 µM) | 4 (≈ 3.54 µM) | 4 (≈ 3.54 µM) | 4 (≈ 3.54 µM) | 2 (≈ 1.77 µM) | 4 (≈ 3.54 µM) | 2 (≈ 1.77 µM) | 2 (≈ 1.77 µM) | 37
6 | CCCCCCC[C@@H](O)CC(=O)N[C@H](CCN)C(=O)N[C@H]1CCNC(=O)[C@H](Cc2c[nH]c3ccccc23)NC(=O)[C@H](CCN)NC(=O)[C@H](CCN)NC(=O)[C@H](CC(C)C)NC(=O)[C@@H](C2Cc3ccccc3C2)NC(=O)[C@H](CCN)NC1=O [compound 8826, nC10-3(R)OH-D-Dab-cyc[L-Dab-L-Dab-D-indanylgyl-L-Leu-L-Dab-L-Dab-L-Trp]] ({Decanoyl(3R-OH)}-[dDab][Dab][Dab][dIgl]L[Dab][Dab]W; lactam 2-C) | 8 (≈ 7 µM) | 8 (≈ 7 µM) | 8 (≈ 7 µM) | 8 (≈ 7 µM) | 8 (≈ 7 µM) | 4 (≈ 3.5 µM) | 8 (≈ 7 µM) | 8 (≈ 7 µM) | 4 (≈ 3.5 µM) | 4 (≈ 3.5 µM) | 4 (≈ 3.5 µM) | 4 (≈ 3.5 µM) | 38
